# Values quoted from earlier work in patent publication US10463045B2, “Agrochemical composition” (Nippon Soda Co., Ltd., priority 2015, dated 2019).
# Read-outs that look alike come from different tables or passages of the source.
molecule,measurement,setting,value
5-butyl-2-dimethylamino-6-methylpyridin-4-ol [dimethirimol],solubility in water,25° C.,"1,200 mg/l"
"ClC=CCCl [D-D, 1,3-dichloropropene]",solubility in water,"E form, 20° C.","2,520 mg/l"
same,solubility in water,"Z form, 20° C.","2,450 mg/l"
"CC(C)N1C(=O)c2ccccc2NS1(=O)=O [bentazon, 3-isopropyl-1H-2,1,3-benzothiadiazin-4(3H)-one-2,2-dioxide]",solubility in water,20° C.,570 mg/L
"CN(CC[C@H](N)CC(=O)N[C@H]1C=C[C@H](n2ccc(N)nc2=O)O[C@@H]1C(=O)O)C(=N)N [blasticidin S, 1-(4-amino-1,2-dihydro-2-oxopyrimidin-1-yl)-4-[(S)-3-amino-5-(1-methyl-guanidino)valeramido]-1,2,3,4,-tetradioxy-β-D-erythrohexy-2-enopyranuronic acid]",solubility in water,20° C.,"30,000 mg/l"
"CC(C1CC1)C(O)(Cn1cncn1)c1ccc(Cl)cc1 (stereo not drawn) [cyproconazole, 2-(4-chlorophenyl)-3-cyclopropyl-1-(1H-1,2,4-triazol-1-yl) butan-2-ol]",solubility in water,pH 6.9,100 mg/L
"CN1CSC(=S)N(C)C1 [dazomet, 3,5-dimethyl-tetrahydro-2H-1,3,5-thiadiazine-2-thione]",solubility in water,20° C.,"3,500 mg/l"
N#CCNC(=O)c1cnccc1C(F)(F)F [flonicamid],solubility in water,20° C.,"5,200 mg/l"
"CNC(=O)ON=C(C)SC [methomyl, S-methyl-N-(methylcarbamoyloxy) thioacetimidate]",solubility in water,"20° C., pH 7","46,000 mg/l"
